Source: paper PMC11165448, “Biocatalytic Heteroaromatic Amide Formation in Water Enabled by a Catalytic Tetrad and Two Access Tunnels” (ACS Catalysis, 2024)

Target: T1, acyltransferase from M. smegmatis (MsAcT) (Mycolicibacterium smegmatis, UniProt A0R5U7)
T1 construct: gene MSMEG_6317; His6-tagged, expressed in Escherichia coli, cell-free extract
Assay: amide formation screen with cell-free extract
Format: cell-based
Settings: co-substrate benzylamine 20 mM; ester 20 mM; buffer, 30 C

T1 sequence (A0R5U7 entry or part of it): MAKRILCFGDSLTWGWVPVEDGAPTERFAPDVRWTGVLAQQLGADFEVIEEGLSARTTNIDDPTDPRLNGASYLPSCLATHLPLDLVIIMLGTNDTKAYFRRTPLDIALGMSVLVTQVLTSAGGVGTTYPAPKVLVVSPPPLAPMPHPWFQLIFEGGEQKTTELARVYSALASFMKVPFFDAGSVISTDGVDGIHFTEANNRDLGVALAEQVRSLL

## CCOC(=O)c1ccco1 [1e, ethyl 2-furoate]
  amide formation screen with cell-free extract: MsAcT and variants displayed activity with ethyl 2-furoate 1e
